Laboratory results reported in PMC6100512, “In-Vitro Activity of Silybin and Related Flavonolignans against Leishmania infantum and L. donovani” (Molecules : A Journal of Synthetic Chemistry and Natural …, 2018).

Key:
[1] = tested on: Li UCM9 promastigotes; experiment: Multiplication of Li promastigotes in vitro (CellTiter-Glo, 24 h); assay type: cell-based, Leishmania infantum; conditions: for IC50: approximate, dose-response curve; for IC50 / inhibition of growth at 120 µM: 24 h; for inhibition of growth at 120 µM: compared to untreated cultures, mean ± SD, read-out: Reduction (%) of multiplication, L infantum promastigotes; for Emax: exploratory screening, 0.94 µM up to 120 µM, read-out: Maximal effect (inhibition of growth of control cultures) on Li promastigotes
Procedure: (§1) Growth was estimated by the addition of CellTiter-Glo® (Promega, Madison, WI, USA) (1:1) in 96-well microtiter white plates (Costar, Corning). After 10 min incubation (light protected, room temperature), luminescence was determined with FLUOstar Omega (BMG Labtech) reader. Sensitivity of Ld was similarly performed with promastigotes exposed to 120 μM. Control cultures (medium, untreated promastigotes, promastigotes treated with 0.2 μM AmB) were included. Experiment was carried out in triplicate and results expressed as % of inhibition of untreated control. Approximate IC50 values of the flavonolignans showing the highest inhibitory activity against Li mid-log-phase promastigotes were determined using dose-response curves. […] The compound with the highest activity, DhiS-A, was assayed against Ld promastigotes using the latter dilution series and the same culture conditions as above. For comparative purposes, mid-log promastigotes of Li and Ld were exposed to established anti-Leishmania agents: AmB (0.0078 μ[…] and 1.0 μM); […]

[2] = tested on: Ld promastigotes; experiment: Multiplication of Ld promastigotes in vitro (CellTiter-Glo, 24 h); assay type: cell-based, L. donovani; conditions: Leishmania donovani; for inhibition of growth at 120 µM: compared to untreated cultures, mean ± SD, read-out: Reduction (%) of multiplication, L. donovani promastigotes
Procedure: as §1

[3] = tested on: Li promastigotes; experiment: Drug combination with DhiS-A, Chou-Talalay method (CalcuSyn); assay type: cell-based, Leishmania infantum; conditions: for Dose Required of Dn in combination with DhiS-A: computer-simulated; for DRI of Dn in combination with DhiS-A: fold dose reduction vs single agent; for Type of interaction with DhiS-A: Li promastigotes, fixed ratios AmB 0.01:15, Sb^III 1:1, PMM 5:1 (Dn:DhiS-A)
Procedure: Fixed-combination ratios of drugs were based on the IC50 values determined for the individual molecules. Mid-log-phase promastigotes of Li were exposed for 24 h at constant ratios of 0.01:15 (AmB:DhiS-A), 1:1 (Sb^III:DhiS-A) and 5:1 (PMM:DhiS-A). Dose–response curves of the combinations were analyzed with the Chou–Talalay method, based on the theorem of combination index (CI)-isobologram and CalcuSyn software. This method allows the evaluation of the type of interaction between two molecules according to mass action law. Results can be used to determine quantitatively the synergy (CI < 1), additive effect (CI = 1) or antagonism (CI > 1) of combinations. Moreover, the program allows the calculation of the drug reduction index (DRI): dose reduction in drug combinations to reach a given inhibition compared to the activity of the individual drugs.

[4] = tested on: intracellular amastigotes of Li BCN150; experiment: Activity against intracellular amastigotes ex vivo in mouse peritoneal Mφ; assay type: cell-based, Leishmania infantum; conditions: 24 h
Procedure: Antiproliferative activity of flavonolignans against intracellular amastigotes was determined ex vivo using mouse peritoneal Mφ. Infections were carried out following the method and modifications described by us. Briefly, Mφ were seeded onto 8-well cell culture slides (SLP, Lifesciences Co., Pocheon, Korea) in a final volume of 400 µL (2.5 × 10^4 Mφ/well). Plates were incubated overnight at 37 °C under humidified 5% CO2/95% air atmosphere to facilitate adherence. Stationary-phase promastigotes of Ld and Li were centrifuged (370× g, 10 min) without break in a Ficoll (Sigma, Saint Louis, MO, USA) gradient (0%, 10% in Medium 199 and 30% in sterile phosphate-buffered saline). Metacyclic promastigotes, located in the 10–30% Ficoll interphase, were recovered, washed and opsonized in 15% normal mouse serum in 1:1 solution of RPMI and HBSS medium (Gibco, Life Technologies, Paisley, UK), 0.15 mM CaCl2 and 1 mM MgCl2 at 37 °C, 5% CO2 atmosphere for 30 min. Purified metacyclic promastigotes were added to the Mφ cultures using a ratio 4:1 (promastigotes:Mφ) for Li and 10:1 for Ld. Plates were incubated at 33 °C overnight as above. Noninternalized promastigotes were eliminated by repeated washing with fresh medium. Treatments (10 µM) were added to the cultures and kept for 24 h. Slides were methanol-fixed and stained with May–Grünwald Giemsa (Merck) to determine the % of infection and the number of amastigotes/100 Mφ under microscope. Cultures untreated, treated with 0.05% DMSO and treated with 0.1 µM AmB were included as controls. Experiments were done in triplicate and the activity was expressed as % of inhibition compared to untreated cultures.

[5] = tested on: BALB/c mouse peritoneal macrophages, Mφ; experiment: Toxicity of flavonolignans for macrophages (CellTiter-Glo); assay type: cell-based; conditions: Peritoneal macrophage, 24 h, 28.125 to 900 µM, approximate
Procedure: Toxicity of flavonolignans for mammalian cells was determined using mouse peritoneal Mφ. Cells obtained were counted and seeded onto 96-well cultures plates (Costar, Corning) at a final concentration of 5 × 10^4 Mφ/well (100 µL/well). Plates were incubated overnight at 37 °C and humidified 5% CO2/95% air to facilitate adherence. Cells were cultured as above for 24 h with different concentrations of the flavonolignans (28.125 µM, 56.25 µM, 112.5 µM, 225 µM, 450 µM and 900 µM). After incubation, cell viability was determined with CellTiter-Glo® as previously described. Untreated and 300 µM AmB-treated control wells were included. Experiments were done in triplicate and approximate IC50 determined.

[6] = ED50 (50% growth inhibition), constant ratio Dn:DhiS-A (AmB 0.01:15; Sb^III 1:1; PMM 5:1)
[7] = ED75 (75% growth inhibition), constant ratio Dn:DhiS-A (AmB 0.01:15; Sb^III 1:1; PMM 5:1)
[8] = ED90 (90% growth inhibition), constant ratio Dn:DhiS-A (AmB 0.01:15; Sb^III 1:1; PMM 5:1)
[9] = ED95 (95% growth inhibition), constant ratio Dn:DhiS-A (AmB 0.01:15; Sb^III 1:1; PMM 5:1)

## C[C@@H]1[C@H](O)[C@@H](C)/C=C/C=C/C=C/C=C/C=C/C=C/C=C/[C@H](O[C@@H]2O[C@H](C)[C@@H](O)[C@H](N)[C@@H]2O)C[C@@H]2O[C@](O)(C[C@@H](O)C[C@@H](O)[C@H](O)CC[C@@H](O)C[C@@H](O)CC(=O)O[C@H]1C)C[C@H](O)[C@H]2C(=O)O [AmB, amphotericin B]
[1]; Leishmania infantum
  IC50: ~0.06 µM
[2]; approximate, dose-response curve
  IC50: ~0.06 µM
[3]; ED10 (10% growth inhibition), constant ratio Dn:DhiS-A (AmB 0.01:15)
  CI value of combination Dn + DhiS-A: 1.49 (antagonism)
[3]; ED10
  Dose Required of Dn in combination with DhiS-A: 0.023 µM
  DRI of Dn in combination with DhiS-A: 2.85
[3]; ED25 (25% growth inhibition), constant ratio Dn:DhiS-A (AmB 0.01:15)
  CI value of combination Dn + DhiS-A: 1.24 (moderate antagonism)
[3]; ED25
  Dose Required of Dn in combination with DhiS-A: 0.030 µM
  DRI of Dn in combination with DhiS-A: 2.74
[3]; [6]
  CI value of combination Dn + DhiS-A: 1.06 (additive effect)
[3]; ED50
  Dose Required of Dn in combination with DhiS-A: 0.038 µM
  DRI of Dn in combination with DhiS-A: 2.64
[3]; [7]
  CI value of combination Dn + DhiS-A: 0.92 (additive effect)
[3]; ED75
  Dose Required of Dn in combination with DhiS-A: 0.048 µM
  DRI of Dn in combination with DhiS-A: 2.54
[3]; [8]
  CI value of combination Dn + DhiS-A: 0.81 (moderate synergism)
[3]; ED90
  Dose Required of Dn in combination with DhiS-A: 0.062 µM
  DRI of Dn in combination with DhiS-A: 2.39
[3]; ED95
  Dose Required of Dn in combination with DhiS-A: 0.074 µM
[3]
  Type of interaction with DhiS-A: moderate synergism
[4]; 0.1 µM
  Reduction of the number of Mφ infected, Li: 50.0 ± 6.93%
  Reduction of the number of amastigotes/100 Mφ, Li: 57.63 ± 11.47%

## COc1cc([C@H]2Oc3cc(-c4oc5cc(O)cc(O)c5c(=O)c4O)ccc3O[C@@H]2CO)ccc1O [Dehydrosilybin A, dehydrosilybin A]
[1]; Leishmania infantum
  inhibition of growth at 120 µM: 10.2 ± 6.97%
[2]
  inhibition of growth at 120 µM: -38.7 ± 5.41%
[5]
  IC50: ~60 µM
[4]; 10 µM
  Reduction of Mφ infection, Li: 40.13 ± 12.6%
  Reduction of intracellular amastigotes, Li: over 50%

## COc1cc(C2Oc3cc(-c4oc5cc(O)cc(O)c5c(=O)c4O)ccc3OC2CO)ccc1O (stereo not drawn) [Dehydrosilybin AB, dehydrosilybin AB]
[1]; Leishmania infantum
  inhibition of growth at 120 µM: 17.9 ± 4.33%
  Emax: < 50%
[2]
  inhibition of growth at 120 µM: 9.01 ± 3.59%
[5]
  IC50: ~37 µM

## COc1cc([C@@H]2Oc3cc(-c4oc5cc(O)cc(O)c5c(=O)c4O)ccc3O[C@H]2CO)ccc1O [Dehydrosilybin B, dehydrosilybin B]
[1]; Leishmania infantum
  inhibition of growth at 120 µM: 20.9 ± 11.6%
[2]
  inhibition of growth at 120 µM: 38.1 ± 2.9%
[5]
  IC50: ~41.2 µM

## COc1cc([C@@H]2Oc3c(O)cc(-c4oc5cc(O)cc(O)c5c(=O)c4O)cc3[C@H]2CO)ccc1O [Dehydrosilychristin A, dehydrosilychristin A]
[1]; Leishmania infantum
  inhibition of growth at 120 µM: 30.6 ± 3.33%
  Emax: < 50%
[2]
  inhibition of growth at 120 µM: 46.7 ± 1.24%
[5]
  IC50: ~40 µM

## COc1cc(C2C3C=C(c4oc5cc(O)cc(O)c5c(=O)c4O)C4C2COC4(O)C3=O)ccc1O (stereo not drawn) [Dehydrosilydianin, dehydrosilydianin]
[1]; Leishmania infantum
  inhibition of growth at 120 µM: 42.2 ± 5.42%
  Emax: < 50%
[2]
  inhibition of growth at 120 µM: 29.8 ± 2.17%

## COc1cc([C@H]2Oc3ccc([C@H]4Oc5cc(O)cc(O)c5C(=O)[C@@H]4O)cc3O[C@@H]2CO)ccc1O [Isosilybin A, isosilybin A]
[1]; Leishmania infantum
  inhibition of growth at 120 µM: 6.94 ± 6.43%
[2]
  inhibition of growth at 120 µM: 30.6 ± 5.85%

## NC[C@@H]1O[C@H](O[C@H]2[C@@H](O)[C@H](O[C@@H]3[C@@H](O)[C@H](N)C[C@H](N)[C@H]3O[C@H]3O[C@H](CO)[C@@H](O)[C@H](O)[C@H]3N)O[C@@H]2CO)[C@H](N)[C@@H](O)[C@@H]1O [PMM, paromomycin sulphate]
[3]; [6]
  CI value of combination Dn + DhiS-A: 1.98 (antagonism)
[3]; ED50
  Dose Required of Dn in combination with DhiS-A: 822 µM
  DRI of Dn in combination with DhiS-A: 39.54
[3]; [7]
  CI value of combination Dn + DhiS-A: 1.65 (antagonism)
[3]; ED75
  Dose Required of Dn in combination with DhiS-A: 1145 µM
  DRI of Dn in combination with DhiS-A: 182.9
[3]; [8]
  CI value of combination Dn + DhiS-A: 1.38 (moderate antagonism)
[3]; ED90
  Dose Required of Dn in combination with DhiS-A: 1594 µM
  DRI of Dn in combination with DhiS-A: 845.2
[3]; [9]
  CI value of combination Dn + DhiS-A: 1.23 (moderate antagonism)
[3]; ED95
  Dose Required of Dn in combination with DhiS-A: 1997 µM
  DRI of Dn in combination with DhiS-A: 2393
[3]
  Type of interaction with DhiS-A: antagonists

## COc1cc([C@H]2Oc3cc([C@H]4Oc5cc(O)cc(O)c5C(=O)[C@@H]4O)ccc3O[C@@H]2CO)ccc1O [Silybin A, silybin A]
[1]; Leishmania infantum
  inhibition of growth at 120 µM: -3.18 ± 9.09%
[2]
  inhibition of growth at 120 µM: 14.2 ± 7.6%

## COc1cc([C@@H]2Oc3cc([C@H]4Oc5cc(O)cc(O)c5C(=O)[C@@H]4O)ccc3O[C@H]2CO)ccc1O [Silybin B, silybin B]
[1]; Leishmania infantum
  inhibition of growth at 120 µM: -3.82 ± 9.11%
[2]
  inhibition of growth at 120 µM: 30.9 ± 5.02%

## COc1cc([C@@H]2Oc3c(O)cc([C@H]4Oc5cc(O)cc(O)c5C(=O)[C@@H]4O)cc3[C@H]2CO)ccc1O [Silychristin A, silychristin A]
[1]; Leishmania infantum
  inhibition of growth at 120 µM: 27.1 ± 8.64%
  Emax: < 50%
[2]
  inhibition of growth at 120 µM: 19.2 ± 5.75%

## COc1cc([C@@H]2[C@H]3CO[C@@]4(O)C(=O)[C@@H]2C=C([C@H]2Oc5cc(O)cc(O)c5C(=O)[C@@H]2O)[C@@H]34)ccc1O [Silydianin, silydianin]
[1]; Leishmania infantum
  inhibition of growth at 120 µM: 16.4 ± 8.63%
[2]
  inhibition of growth at 120 µM: 20.5 ± 3.08%

## potassium tartrate of antimonium III [Sb^III]
[1]
  IC50: ~80.6 µM
[3]; [6]
  CI value of combination Dn + DhiS-A: 1.89 (antagonism)
[3]; ED50
  Dose Required of Dn in combination with DhiS-A: 56 µM
  DRI of Dn in combination with DhiS-A: 0.82
[3]; [7]
  CI value of combination Dn + DhiS-A: 2.09 (antagonism)
[3]; ED75
  Dose Required of Dn in combination with DhiS-A: 141.12 µM
  DRI of Dn in combination with DhiS-A: 0.92
[3]; [8]
  CI value of combination Dn + DhiS-A: 2.50 (antagonism)
[3]; ED90
  Dose Required of Dn in combination with DhiS-A: 355.63 µM
  DRI of Dn in combination with DhiS-A: 1.04
[3]; [9]
  CI value of combination Dn + DhiS-A: 2.93 (antagonism)
[3]; ED95
  Dose Required of Dn in combination with DhiS-A: 666.84 µM
  DRI of Dn in combination with DhiS-A: 1.13
[3]
  Type of interaction with DhiS-A: antagonists
